Each molecule was assayed on MDA-MB-231 (assay: Cytotoxicity against human MDA-MB-231 cells by MTT assay). Settings: not given.
Format: cell-based
For `CC1=CC(=O)[C@H]2/C(C=O)=C\C[C@@H]3[C@](C)(CC[C@@]34O[C@@H](/C=C(\C)CO)C[C@@H]4C)C[C@H]12`, the IC50 was > 40 µM. In the case of `CC(C)=C[C@H]1C[C@H](C)[C@]2(CC[C@]3(C)C[C@H]4[C@H](CC[C@@]4(C)O)/C(CO)=C\C[C@H]32)O1`, the IC50 is reported as > 40 µM. `CC(C)=C[C@H]1C[C@H](C)[C@]2(CC[C@]3(C)C[C@@H]4C(C)=CC(=O)/C4=C(\CO)[C@@H](O)C[C@H]32)O1` was tested, and the IC50 was > 40 µM.

These molecules were tested on HepG2 (assay: Cytotoxicity against human HepG2 cells by MTT assay). Settings: not given.
Format: cell-based
For `CC1=CC(=O)[C@H]2/C(C=O)=C\C[C@@H]3[C@](C)(CC[C@@]34O[C@@H](/C=C(\C)CO)C[C@@H]4C)C[C@H]12`, the IC50 was > 40 µM. For `CC(C)=C[C@H]1C[C@H](C)[C@]2(CC[C@]3(C)C[C@H]4[C@H](CC[C@@]4(C)O)/C(CO)=C\C[C@H]32)O1`, the IC50 was > 40 µM. For `CC(C)=C[C@H]1C[C@H](C)[C@]2(CC[C@]3(C)C[C@@H]4C(C)=CC(=O)/C4=C(\CO)[C@@H](O)C[C@H]32)O1`, the IC50 was > 40 µM.

Each molecule was assayed on RAW264.7 (assay: Cytotoxicity against mouse RAW264.7 cells at 40 uM by MTT assay). Settings: raw264.7, 40 µM.
Format: cell-based
For `CC1=CC(=O)[C@H]2/C(C=O)=C\C[C@@H]3[C@](C)(CC[C@@]34O[C@@H](/C=C(\C)CO)C[C@@H]4C)C[C@H]12`, the Activity was “Non-Toxic”. `CC(C)=C[C@H]1C[C@H](C)[C@]2(CC[C@]3(C)C[C@H]4[C@H](CC[C@@]4(C)O)/C(CO)=C\C[C@H]32)O1` was tested, and the Activity was “Non-Toxic”. With `CC(C)=C[C@H]1C[C@H](C)[C@]2(CC[C@]3(C)C[C@@H]4C(C)=CC(=O)/C4=C(\CO)[C@@H](O)C[C@H]32)O1` the Activity was “Non-Toxic”.

These molecules were tested on RAW264.7 (assay: Antiinflammatory activity in mouse RAW264.7 cells assessed as inhibition of LPS-induced nitric oxide production pretreated for 2 hrs followed by LPS challenge and measured after 12 hrs by Griess assay). Settings: not given.
Format: functional, cell-based
`CC1=CC(=O)[C@H]2/C(C=O)=C\C[C@@H]3[C@](C)(CC[C@@]34O[C@@H](/C=C(\C)CO)C[C@@H]4C)C[C@H]12` was tested, and the IC50 was 19 µM. For `CC(C)=C[C@H]1C[C@H](C)[C@]2(CC[C@]3(C)C[C@H]4[C@H](CC[C@@]4(C)O)/C(CO)=C\C[C@H]32)O1`, the IC50 was > 40 µM. `CC(C)=C[C@H]1C[C@H](C)[C@]2(CC[C@]3(C)C[C@@H]4C(C)=CC(=O)/C4=C(\CO)[C@@H](O)C[C@H]32)O1` gave an IC50 of 6.7 µM.

These molecules were tested on A549 (assay: Cytotoxicity against human A549 cells by MTT assay). Settings: not given.
Format: cell-based
In the case of `CC1=CC(=O)[C@H]2/C(C=O)=C\C[C@@H]3[C@](C)(CC[C@@]34O[C@@H](/C=C(\C)CO)C[C@@H]4C)C[C@H]12`, the IC50 is reported as > 40 µM. With `CC(C)=C[C@H]1C[C@H](C)[C@]2(CC[C@]3(C)C[C@H]4[C@H](CC[C@@]4(C)O)/C(CO)=C\C[C@H]32)O1` the IC50 was > 40 µM. With `CC(C)=C[C@H]1C[C@H](C)[C@]2(CC[C@]3(C)C[C@@H]4C(C)=CC(=O)/C4=C(\CO)[C@@H](O)C[C@H]32)O1` the IC50 was > 40 µM.

These molecules were tested on SW1990 (assay: Cytotoxicity against human SW1990 cells by MTT assay). Settings: not given.
Format: cell-based
With `CC1=CC(=O)[C@H]2/C(C=O)=C\C[C@@H]3[C@](C)(CC[C@@]34O[C@@H](/C=C(\C)CO)C[C@@H]4C)C[C@H]12` the IC50 was > 40 µM. For `CC(C)=C[C@H]1C[C@H](C)[C@]2(CC[C@]3(C)C[C@H]4[C@H](CC[C@@]4(C)O)/C(CO)=C\C[C@H]32)O1`, the IC50 was > 40 µM. In the case of `CC(C)=C[C@H]1C[C@H](C)[C@]2(CC[C@]3(C)C[C@@H]4C(C)=CC(=O)/C4=C(\CO)[C@@H](O)C[C@H]32)O1`, the IC50 is reported as > 40 µM.
